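Grown in 96-well plates, cells were treated for 48 hours with each compound at five concentrations. Insufficient inhibition: endpoint recorded as highest concentration tested. GI50 = concentration required for 50% inhibition of growth. TGI is the concentration that stops growth completely.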
Experiments:
Assay in all cases: inhibition of tumour cell growth, NCI panel, 48 h
786-0 renal = test system: 786-0 renal
U251 CNS = test system: U251 CNS
NCI/ADR-RES ovarian = test system: NCI/ADR-RES ovarian
SR leukemia = test system: SR leukemia
OVCAR-5 ovarian = test system: OVCAR-5 ovarian
ACHN renal = test system: ACHN renal
HCT-116 colon = test system: HCT-116 colon
SF-295 CNS = test system: SF-295 CNS
OVCAR-3 ovarian = test system: OVCAR-3 ovarian
COLO 205 colon = test system: COLO 205 colon
SW-620 colon = test system: SW-620 colon
UO-31 renal = test system: UO-31 renal
MDA-MB-435 = test system: MDA-MB-435
CCRF-CEM leukemia = test system: CCRF-CEM leukemia
SK-MEL-2 melanoma = test system: SK-MEL-2 melanoma
UACC-257 melanoma = test system: UACC-257 melanoma
RPMI-8226 leukemia = test system: RPMI-8226 leukemia
PC-3 prostate = test system: PC-3 prostate
SN12C renal = test system: SN12C renal
LOX IMVI melanoma = test system: LOX IMVI melanoma
NCI-H522 lung = test system: NCI-H522 lung
SNB-19 CNS = test system: SNB-19 CNS
MDA-N = test system: MDA-N
HCT-15 colon = test system: HCT-15 colon
K-562 leukemia = test system: K-562 leukemia
BT-549 breast = test system: BT-549 breast
KM12 colon = test system: KM12 colon
T-47D breast = test system: T-47D breast
UACC-62 melanoma = test system: UACC-62 melanoma
HS 578T breast = test system: HS 578T breast
IGROV1 ovarian = test system: IGROV1 ovarian
SF-268 CNS = test system: SF-268 CNS
CAKI-1 renal = test system: CAKI-1 renal
NCI-H226 lung = test system: NCI-H226 lung
MCF7 breast = test system: MCF7 breast
DU-145 prostate = test system: DU-145 prostate
SNB-75 CNS = test system: SNB-75 CNS
SK-MEL-5 melanoma = test system: SK-MEL-5 melanoma
MALME-3M melanoma = test system: MALME-3M melanoma
M14 melanoma = test system: M14 melanoma
A549 NSCLC = test system: A549 NSCLC
EKVX NSCLC = test system: EKVX NSCLC
OVCAR-8 ovarian = test system: OVCAR-8 ovarian
OVCAR-4 ovarian = test system: OVCAR-4 ovarian
TK-10 renal = test system: TK-10 renal
NCI-H460 lung = test system: NCI-H460 lung
SK-MEL-28 melanoma = test system: SK-MEL-28 melanoma
HT29 colon = test system: HT29 colon
HL-60(TB) leukemia = test system: HL-60(TB) leukemia
NCI-H23 lung = test system: NCI-H23 lung
SK-OV-3 ovarian = test system: SK-OV-3 ovarian
HOP-92 NSCLC = test system: HOP-92 NSCLC
HOP-62 NSCLC = test system: HOP-62 NSCLC
HCC-2998 colon = test system: HCC-2998 colon
MDA-MB-231 breast = test system: MDA-MB-231 breast
A498 renal = test system: A498 renal
SF-539 CNS = test system: SF-539 CNS
MOLT-4 leukemia = test system: MOLT-4 leukemia
RXF 393 renal = test system: RXF 393 renal

In the case of `O=[N+]([O-])c1ccc(N/N=C2\C=CCCC2)c([N+](=O)[O-])c1`, the TGI (786-0 renal) is reported as > 100 µM, the TGI (U251 CNS) is reported as > 100 µM and the TGI (NCI/ADR-RES ovarian) is reported as > 100 µM. The TGI (SR leukemia) was > 100 µM, the TGI (OVCAR-5 ovarian) was > 100 µM and the TGI (ACHN renal) was > 100 µM. The TGI (HCT-116 colon) was > 100 µM, the TGI (SF-295 CNS) was > 100 µM and the TGI (OVCAR-3 ovarian) was > 100 µM. For the same compound, the TGI (COLO 205 colon) was > 100 µM, the TGI (SW-620 colon) was > 100 µM and the TGI (UO-31 renal) was > 100 µM. The TGI (MDA-MB-435) was > 100 µM, the TGI (CCRF-CEM leukemia) was > 100 µM and the TGI (SK-MEL-2 melanoma) was > 100 µM. The TGI (UACC-257 melanoma) was > 100 µM, the TGI (RPMI-8226 leukemia) was > 100 µM and the TGI (PC-3 prostate) was > 100 µM. For the same compound, the TGI (SN12C renal) was > 100 µM, the TGI (LOX IMVI melanoma) was > 100 µM and the TGI (NCI-H522 lung) was > 100 µM. The TGI (SNB-19 CNS) was > 100 µM, the TGI (MDA-N) was > 100 µM and the TGI (HCT-15 colon) was > 100 µM. For the same compound, the TGI (K-562 leukemia) was > 100 µM, the TGI (BT-549 breast) was > 100 µM and the TGI (KM12 colon) was > 100 µM. The TGI (T-47D breast) was > 100 µM, the TGI (UACC-62 melanoma) was > 100 µM and the TGI (HS 578T breast) was > 100 µM. The TGI (IGROV1 ovarian) was > 100 µM, the TGI (SF-268 CNS) was > 100 µM and the TGI (CAKI-1 renal) was > 100 µM. For the same compound, the TGI (NCI-H226 lung) was > 100 µM, the TGI (MCF7 breast) was > 100 µM and the TGI (DU-145 prostate) was > 100 µM. For the same compound, the TGI (SNB-75 CNS) was 73 µM, the TGI (SK-MEL-5 melanoma) was > 100 µM and the TGI (MALME-3M melanoma) was > 100 µM. For the same compound, the TGI (M14 melanoma) was > 100 µM, the TGI (A549 NSCLC) was > 100 µM and the TGI (EKVX NSCLC) was > 100 µM. For the same compound, the TGI (OVCAR-8 ovarian) was > 100 µM, the TGI (OVCAR-4 ovarian) was > 100 µM and the TGI (TK-10 renal) was > 100 µM. For the same compound, the TGI (NCI-H460 lung) was > 100 µM, the TGI (SK-MEL-28 melanoma) was > 100 µM and the TGI (HT29 colon) was > 100 µM. The TGI (HL-60(TB) leukemia) was > 100 µM, the TGI (NCI-H23 lung) was > 100 µM and the TGI (SK-OV-3 ovarian) was > 100 µM. The TGI (HOP-92 NSCLC) was > 100 µM and the TGI (HOP-62 NSCLC) was > 100 µM.
`COc1ccc(-c2cc(=O)c3cc(C)cnc3[nH]2)cc1` was tested, and the GI50 (786-0 renal) was 5.1 µM, the TGI (786-0 renal) was > 100 µM and the GI50 (U251 CNS) was 4.2 µM. The TGI (U251 CNS) was > 100 µM, the TGI (HCC-2998 colon) was 85 µM and the TGI (NCI/ADR-RES ovarian) was 23.5 µM. For the same compound, the TGI (OVCAR-5 ovarian) was > 100 µM, the TGI (MDA-MB-231 breast) was > 100 µM and the TGI (ACHN renal) was > 100 µM. For the same compound, the GI50 (HCT-116 colon) was 4.15 µM, the TGI (HCT-116 colon) was > 100 µM and the GI50 (SF-295 CNS) was 5.29 µM. For the same compound, the TGI (SF-295 CNS) was > 100 µM, the TGI (COLO 205 colon) was 23 µM and the TGI (SW-620 colon) was > 100 µM. The TGI (UO-31 renal) was > 100 µM, the TGI (MDA-MB-435) was 5.53 µM and the TGI (SK-MEL-2 melanoma) was > 100 µM. For the same compound, the TGI (A498 renal) was 62.6 µM, the TGI (UACC-257 melanoma) was > 100 µM and the TGI (RPMI-8226 leukemia) was 45 µM. For the same compound, the GI50 (PC-3 prostate) was 5.32 µM, the TGI (PC-3 prostate) was > 100 µM and the TGI (SN12C renal) was > 100 µM. For the same compound, the TGI (LOX IMVI melanoma) was > 100 µM, the TGI (NCI-H522 lung) was 30.7 µM and the TGI (SNB-19 CNS) was > 100 µM. For the same compound, the GI50 (MDA-N) was 1.69 µM, the TGI (MDA-N) was 4.98 µM and the TGI (HCT-15 colon) was 19.8 µM. The TGI (SF-539 CNS) was > 100 µM, the TGI (MOLT-4 leukemia) was 40.9 µM and the TGI (K-562 leukemia) was 8.29 µM. For the same compound, the TGI (BT-549 breast) was 15 µM, the TGI (KM12 colon) was > 100 µM and the TGI (T-47D breast) was > 100 µM. The TGI (UACC-62 melanoma) was > 100 µM, the TGI (HS 578T breast) was > 100 µM and the TGI (IGROV1 ovarian) was > 100 µM. The TGI (RXF 393 renal) was > 100 µM, the TGI (SF-268 CNS) was > 100 µM and the TGI (CAKI-1 renal) was > 100 µM. For the same compound, the TGI (NCI-H226 lung) was 51.7 µM, the TGI (MCF7 breast) was > 100 µM and the TGI (DU-145 prostate) was > 100 µM. For the same compound, the GI50 (SK-MEL-5 melanoma) was 3.73 µM, the TGI (SK-MEL-5 melanoma) was > 100 µM and the TGI (MALME-3M melanoma) was > 100 µM. The TGI (M14 melanoma) was 45.1 µM, the TGI (A549 NSCLC) was > 100 µM and the TGI (EKVX NSCLC) was > 100 µM. The TGI (OVCAR-8 ovarian) was > 100 µM, the TGI (OVCAR-4 ovarian) was > 100 µM and the TGI (TK-10 renal) was > 100 µM. The GI50 (NCI-H460 lung) was 4.08 µM, the TGI (NCI-H460 lung) was 36.5 µM and the TGI (SK-MEL-28 melanoma) was > 100 µM. It also gave a TGI (HT29 colon) of 5.9 µM, a GI50 (HL-60(TB) leukemia) of 2.27 µM and a TGI (HL-60(TB) leukemia) of 5.64 µM. For the same compound, the TGI (NCI-H23 lung) was > 100 µM, the TGI (SK-OV-3 ovarian) was > 100 µM and the TGI (HOP-92 NSCLC) was > 100 µM. For the same compound, the TGI (HOP-62 NSCLC) was > 100 µM.
`CC=C(CBr)CCC(Br)C(C)(C)Cl` (mixture of isomers) was tested, and the TGI (786-0 renal) was > 10 µM, the TGI (U251 CNS) was > 10 µM and the TGI (HCC-2998 colon) was > 10 µM. The TGI (NCI/ADR-RES ovarian) was > 10 µM, the TGI (OVCAR-5 ovarian) was > 10 µM and the TGI (MDA-MB-231 breast) was > 10 µM. The TGI (ACHN renal) was > 10 µM, the TGI (HCT-116 colon) was > 10 µM and the TGI (SF-295 CNS) was > 10 µM. The TGI (OVCAR-3 ovarian) was > 10 µM, the TGI (COLO 205 colon) was > 10 µM and the TGI (SW-620 colon) was > 10 µM. The TGI (UO-31 renal) was > 10 µM, the TGI (MDA-MB-435) was > 10 µM and the TGI (CCRF-CEM leukemia) was > 10 µM. The TGI (SK-MEL-2 melanoma) was > 10 µM, the TGI (A498 renal) was > 10 µM and the TGI (UACC-257 melanoma) was > 10 µM. The TGI (RPMI-8226 leukemia) was > 10 µM, the TGI (PC-3 prostate) was > 10 µM and the TGI (SN12C renal) was > 10 µM. The TGI (NCI-H522 lung) was > 10 µM, the TGI (SNB-19 CNS) was > 10 µM and the TGI (MDA-N) was > 10 µM. The TGI (HCT-15 colon) was > 10 µM, the TGI (SF-539 CNS) was > 10 µM and the TGI (MOLT-4 leukemia) was > 10 µM. For the same compound, the TGI (K-562 leukemia) was > 10 µM, the TGI (BT-549 breast) was > 10 µM and the TGI (KM12 colon) was > 10 µM. For the same compound, the TGI (T-47D breast) was > 10 µM, the TGI (HS 578T breast) was > 10 µM and the TGI (IGROV1 ovarian) was > 10 µM. The TGI (RXF 393 renal) was > 10 µM, the TGI (SF-268 CNS) was > 10 µM and the TGI (CAKI-1 renal) was > 10 µM. The TGI (NCI-H226 lung) was > 10 µM, the TGI (MCF7 breast) was > 10 µM and the TGI (DU-145 prostate) was > 10 µM. For the same compound, the TGI (SNB-75 CNS) was > 10 µM, the TGI (SK-MEL-5 melanoma) was > 10 µM and the TGI (MALME-3M melanoma) was > 10 µM. For the same compound, the TGI (M14 melanoma) was > 10 µM, the TGI (A549 NSCLC) was > 10 µM and the TGI (EKVX NSCLC) was > 10 µM. For the same compound, the TGI (OVCAR-8 ovarian) was > 10 µM, the TGI (OVCAR-4 ovarian) was > 10 µM and the TGI (TK-10 renal) was > 10 µM. For the same compound, the TGI (NCI-H460 lung) was > 10 µM, the TGI (SK-MEL-28 melanoma) was > 10 µM and the TGI (HT29 colon) was > 10 µM. For the same compound, the TGI (NCI-H23 lung) was > 10 µM, the TGI (SK-OV-3 ovarian) was > 10 µM and the TGI (HOP-92 NSCLC) was > 10 µM. For the same compound, the TGI (HOP-62 NSCLC) was > 10 µM.

Reference: PubChem BioAssay (NCI)
